system: Green Peach Aphid (Myzus Persicae); assay: Test of preventive value against green peach aphid (Test Example 1); type: in vivo; conditions: 500 ppm, sprayed over stems and leaves of potted Chinese cabbages, sixth day after spraying
Description: Test of Preventive Value Against Green Peach Aphid (Myzus Persicae)
Chinese cabbages were planted in plastic pots, each with a size of 8 cm in diameter and 8 cm in height, after which green peach aphids were propagated and the number of parasitic insects was examined in each pot. An oxazepine compound or salt thereof expressed by General Formula (I) according to the present invention was dispersed in water and the dispersion was diluted to 500 ppm in the form of a reagent, after which the reagent was sprayed over stems and leaves of potted Chinese cabbages and let dry under wind, and the pots were kept in a greenhouse, and on the sixth day after the reagent was sprayed, the number of green peach aphids living parasitically on each Chinese cabbage was examined and the preventive value was calculated based on the formula below, and judgment was made according to the criteria below. Preventive value=100−{(T×Ca)/(Ta×C)}×100 [Mathematical Formula 1] • Ta: Number of parasitic insects inside the treatment area before spraying • T: Number of parasitic insects inside the treatment area after spraying • Ca: Number of parasitic insects inside the non-treatment area before spraying • C: Number of parasitic insects inside the non-treatment area after spraying Judgment Criteria • A - - - Preventive value: 100% • B - - - Preventive value: 99%˜90% • C - - - Preventive value: 89%˜80% • D - - - Preventive value: 79%˜50%

SMILES | Preventive value, judgment
O=C1Nc2cccc(Cl)c2Oc2cn(-c3cccnc3)nc21 [1-22] | A to D
CN1C(=O)c2nn(-c3cncc(Br)c3)cc2Oc2ccccc21 [1-83] | A to D
CN1Cc2nn(-c3cccnc3)cc2Oc2ccccc21 [3-2] | A to D
N#CCN1Cc2nn(-c3cccnc3)cc2Oc2cc(F)ccc21 [3-5] | A to D
CC(=O)N1Cc2nn(-c3cccnc3)cc2Oc2ccc(F)cc21 [3-9] | A to D
C[S+]([O-])CN1C(=O)c2nn(-c3cccnc3)cc2Oc2ccccc21 (stereo not drawn) [8-3] | A to D
CC#CCN1C(=O)c2nn(-c3cccnc3)cc2Oc2ccccc21 [8-5] | A to D
CC(C)=CCN1C(=O)c2nn(-c3cccnc3)cc2Oc2ccccc21 [8-6] | A to D
CN(C)C(=O)CN1C(=O)c2nn(-c3cccnc3)cc2Oc2ccccc21 [8-7] | A to D
NC(=O)CCN1C(=O)c2nn(-c3cccnc3)cc2Oc2ccccc21 [8-8] | A to D
CC(=O)OCN1C(=O)c2nn(-c3cccnc3)cc2Oc2ccccc21 [8-9] | A to D
O=C1c2nn(-c3cccnc3)cc2Oc2ccccc2N1CC1OCCO1 [8-11] | A to D
CN(C)C(=O)N1C(=O)c2nn(-c3cccnc3)cc2Oc2ccccc21 [8-14] | A to D
O=CCN1C(=O)c2nn(-c3cccnc3)cc2Oc2ccccc21 [8-15] | A to D
CON=CCN1C(=O)c2nn(-c3cccnc3)cc2Oc2ccccc21 [8-16] | A to D
O=C1c2nn(-c3cccnc3)cc2Oc2ccccc2N1CCSCCC(F)(F)F [8-17] | A to D
O=C1c2nn(-c3cccnc3)cc2Oc2ccccc2N1CC[S+]([O-])CCC(F)(F)F (stereo not drawn) [8-18] | A to D
O=C1c2nn(-c3cccnc3)cc2Oc2ccccc2N1CCS(=O)(=O)CCC(F)(F)F [8-19] | A to D

SMILES | Preventive value, judgment
COCN1C(=O)c2nn(-c3cccnc3)cc2Oc2c(F)cccc21 [8-22] | A to D
O=C1c2nn(-c3cccnc3)cc2Oc2cc(F)ccc2N1CC1CC1 [8-27] | A to D
CC(C)CN1C(=O)c2nn(-c3cccnc3)cc2Oc2cc(F)ccc21 [8-28] | A to D
CCC(C)N1C(=O)c2nn(-c3cccnc3)cc2Oc2cc(F)ccc21 (stereo not drawn) [8-29] | A to D
N#CCCCN1C(=O)c2nn(-c3cccnc3)cc2Oc2cc(F)ccc21 [8-30] | A to D
N#CC(F)N1C(=O)c2nn(-c3cccnc3)cc2Oc2cc(F)ccc21 (stereo not drawn) [8-33] | A to D
O=C1c2nn(-c3cccnc3)cc2Oc2ccc(F)cc2N1CC1CC1 [8-36] | A to D
O=C1c2nn(-c3cccnc3)cc2Oc2ccc(F)cc2N1CC(F)(F)F [8-39] | A to D
O=C1c2nn(-c3cccnc3)cc2Oc2ccc(F)cc2N1CC1OCCO1 [8-43] | A to D
O=C1c2nn(-c3cccnc3)cc2Oc2ccc(F)cc2N1CCN1CCOCC1 [8-44] | A to D
CSCN1C(=O)c2nn(-c3cccnc3)cc2Oc2ccc(F)cc21 [8-47] | A to D
C[S+]([O-])CN1C(=O)c2nn(-c3cccnc3)cc2Oc2ccc(F)cc21 (stereo not drawn) [8-48] | A to D
CC(C#N)N1C(=O)c2nn(-c3cccnc3)cc2Oc2ccc(F)cc21 (stereo not drawn) [8-50] | A to D
N#CCCCN1C(=O)c2nn(-c3cccnc3)cc2Oc2ccc(F)cc21 [8-51] | A to D
NC(=O)CN1C(=O)c2nn(-c3cccnc3)cc2Oc2ccc(F)cc21 [8-52] | A to D
O=CN1C(=O)c2nn(-c3cccnc3)cc2Oc2ccc(F)cc21 [8-53] | A to D
CN1C(=O)c2nn(-c3cccnc3)cc2Oc2ccc(Cl)cc21 [8-55] | A to D
CN1C(=O)c2nn(-c3cccnc3)cc2Oc2cccc(Cl)c21 [8-59] | A to D

Source: patent US10100061B2, “Oxazepine compound and agricultural/horticultural insecticide containing said compound as active ingredient, and method for using the same” (NIHON NOHYAKU CO., LTD., priority 2014, dated 2018)
